Reference: patent publication US4596820A, “1,7-diphenyl-3-methylaza-7-cyano-8-methylnonane for use in the treatment of diseases” (priority 1983, dated 1986)

Assays:
[1] = tested on: hypoxic reduction in the level of creatine phosphate, adenosine triphosphate and glycogen in the heart muscle; experiment: animal or person; type: in vivo, rat (male Wistar); details: for Relative activity: relative to (±) A = 1; for ED 50% (pretreatment dose which increases the ATP level by 50% compared with the hypoxic control group): 360 min
Method: Male Wistar rats weighing 250-300 g were anesthetized intraperitoneally with thiobutabarbital (100 mg/kg of body weight) and then subjected to standardized ventilation with an oxygen-deficient mixture (2% of O2 and 98% of N2) for 7 minutes. Using the freeze-stop technique, the apex of the heart was removed, mechanically comminuted and then digested with the addition of 0.6N perchloric acid. After centrifuging, creatine phosphate (according to Bergmeyer, H. U., Methoden der enzymatischen Analyse, Verlag Chemie, Weinheim, 2, (1974), 1825), adenosine triphosphate (according to Biochem. Biophys. Acta (Amst.) 1 (1947), 292) and glycogen (according to Biochem. J. 56 (1954), 1825) were determined in the supernatant liquid.
The test substances were administered to the conscious animals at various times before they were anesthetized and before the subsequent ventilation with an oxygen-deficient mixture. The percentage difference in the myocardial concentrations of adenosine triphosphate (ATP), creatine phosphate (CP) and glycogen in animals pretreated with the test substance compared with untreated hypoxic control animals was determined.
The ED 50% is the pretreatment dose of test substance which
increases the ATP level by 50% compared with the hypoxic

[2] = tested on: blood pressure and heart rate; experiment: Blood pressure and heart rate of conscious spontaneously hypertensive rats; type: in vivo; details: 20 mg/kg oral
AV conduction = experiment: Effect on AV conduction in the dog; type: in vivo
Method: The effect on the AV conduction was tested on a species suitable for this purpose, ie. the dog.

cerebral hypoxia = experiment: Tolerance of the mouse to hypoxia (survival of oxygen-deficient ventilation); type: in vivo, mouse (female NMRI Ivanovas); details: for Effect on number of animals surviving hypoxia after 3 minutes: 96.5% N2 and 3.5% O2, dose-dependent for A and its antipodes; for ED 50% (dose at which 50% of the animals survived oxygen-deficient ventilation for 3 minutes): 60 min
Method: To test for tolerance to hypoxia, female mice (NMRI Ivanovas, weight 24-26 g) were introduced individually into glass tubes through which a gas mixture consisting of 96.5% of N2 and 3.5% of O2 flowed via a rotameter, at a rate of 4 liters/min. The time from the beginning of passage of the gas mixture until death occurred was measured.
Tolerance of the mouse to hypoxia, test carried out 1 hour
after oral administration of the test substances.
ED 50% means that, at the stated dose, 50% of the animals
survived oxygen-deficient ventilation for 3 minutes.

[3] = in vivo
[4] = Overall findings (oral availability, duration of action, toleration); details: in vivo
[5] = tested on: PQ interval and myocardial contractility; experiment: PQ interval and myocardial contractility in anesthetized pigs; type: in vivo, pig; details: 0.2 mg/kg intravenously
[6] = tested on: heart and the circulation; details: similar doses; cited from earlier work
[7] = 5 mg/kg oral, 6 hours after administration, vs untreated hypoxic controls
[8] = 10 mg/kg oral, 6 hours after administration, vs untreated hypoxic controls
[9] = 20 mg/kg oral, 2 hours after administration
[10] = 20 mg/kg oral, 6 hours after administration (Table 2)
[11] = 20 mg/kg oral, 6 hours after administration (Table 3, comparison with verapamil)
[12] = 20 mg/kg oral, 6 hours after administration, vs untreated hypoxic controls (Table 1)
[13] = 20 mg/kg oral, 12 hours after administration
[14] = 20 mg/kg oral, 18 hours after administration
[15] = 20 mg/kg oral, 24 hours after administration
[16] = rat, 6 hours after oral administration
[17] = mouse, 1 hour after oral administration
[18] = 40 mg/kg oral, 6 hours after administration
[19] = 80 mg/kg oral, 6 hours after administration

Q: With `CC(C)C(C#N)(CCCN(C)CCc1ccccc1)c1ccccc1` (racemic) [A, 1,7-diphenyl-3-methylaza-7-cyano-8-methylnonane] as the compound, how does the “Inhibition of the hypoxic reduction in CP, ATP and glycogen in the heart muscle” value ([1]; 5 mg/kg oral (lowest dose tested)) read?
A: Its value is “substantially inhibits the hypoxic reduction in the level of creatine phosphate, adenosine triphosphate and glycogen in the heart muscle”.

Q: And the “Percentage difference in the amount of ATP” value [1, 7]?
A: Its value is 24%.

Q: What about the “Percentage difference in the amount of CP” value [1, 7] of the same compound?
A: Its value is 29%.

Q: What about the “Percentage difference in the amount of Glycogen” value [1, 7] of the same compound?
A: Its value is 10%.

Q: And the “Percentage difference in the amount of ATP” value [1, 8]?
A: The value was 37%.

Q: What about the “Percentage difference in the amount of CP” value [1, 8] of the same compound?
A: Its value is 47%.

Q: What about the “Percentage difference in the amount of Glycogen” value [1, 8] of the same compound?
A: Its value is 27%.

Q: And the “Percentage difference in the amount of ATP” value [1, 9]?
A: Its value is 31%.

Q: And the “Percentage difference in the amount of CP” value [1, 9]?
A: Its value is 41%.

Q: What about the “Percentage difference in the amount of Glycogen” value [1, 9] of the same compound?
A: Its value is -1%.

Q: What about the “Percentage difference in the amount of ATP” value [1, 10] of the same compound?
A: Its value is 63%.

Q: And the “Percentage difference in the amount of CP” value [1, 10]?
A: Its value is 80%.

Q: What about the “Percentage difference in the amount of Glycogen” value [1, 10] of the same compound?
A: Its value is 50%.

Q: What about the “Percentage difference in the amount of ATP” value [1, 11] of the same compound?
A: The value was 63%.

Q: What about the “Percentage difference in the amount of CP” value [1, 11] of the same compound?
A: The value was 80%.

Q: What about the “Percentage difference in the amount of Glycogen” value [1, 11] of the same compound?
A: The value was 50%.

Q: And the “Percentage difference in the amount of ATP” value [1, 12]?
A: Its value is 63%.

Q: And the “Percentage difference in the amount of CP” value [1, 12]?
A: The value was 80%.

Q: And the “Percentage difference in the amount of Glycogen” value [1, 12]?
A: Its value is 50%.

Q: What about the “Percentage difference in the amount of ATP” value [1, 13] of the same compound?
A: The value was 42%.

Q: And the “Percentage difference in the amount of CP” value [1, 13]?
A: Its value is 42%.

Q: And the “Percentage difference in the amount of Glycogen” value [1, 13]?
A: Its value is 19%.

Q: What about the “Percentage difference in the amount of ATP” value [1, 14] of the same compound?
A: The value was 40%.

Q: What about the “Percentage difference in the amount of CP” value [1, 14] of the same compound?
A: The value was 32%.

Q: And the “Percentage difference in the amount of Glycogen” value [1, 14]?
A: The value was 16%.

Q: What about the “Percentage difference in the amount of ATP” value [1, 15] of the same compound?
A: The value was 11%.

Q: And the “Percentage difference in the amount of CP” value [1, 15]?
A: Its value is 22%.

Q: What about the “Percentage difference in the amount of Glycogen” value [1, 15] of the same compound?
A: The value was 26%.

Q: What about the “Cardioprotective effect at the dose” value ([1]; 20 mg/kg oral, rat) of the same compound?
A: The value was “maximum cardioprotective effect”.

Q: What about the “Onset of protective effect” value ([1]; 20 mg/kg oral, CP and ATP) of the same compound?
A: Its value is “clearly detectable for the parameters CP and ATP as soon as 2 hours after administration”.

Q: And the “Duration of protective effect” value ([1]; 20 mg/kg, CP and ATP)?
A: The value was “up to 24 hours”.

Q: What about the “Cardioprotective action compared with verapamil” value ([1]; 6 hours after oral administration) of the same compound?
A: Its value is “substantially superior to that of verapamil”.

Q: And the ED50 ([1]; Rattus norvegicus, po, 6 h, rat, 6 hours after oral administration, read-out: ED 50% (pretreatment dose which increases the ATP level by 50% compared with the hypoxic control group))?
A: The ED50 was 13.6 mg/kg.

Q: What about the “Dose dependence of protective effect” value ([1]; oral, rat) of the same compound?
A: The value was “An increase in dose results in a greater protective effect”.

Q: What about the Relative activity [1, 16] of the same compound?
A: The Relative activity was 1.

Q: And the “Toleration of the dose” value ([1]; rat, in vivo)?
A: Its value is “well tolerated”.

Q: What about the “Blood pressure, Change in %” value ([2]; 6 hours after administration) of the same compound?
A: The value was -5%.

Q: What about the “Heart rate, Change in %” value ([2]; 6 hours after administration) of the same compound?
A: The value was -5%.

Q: And the “Blood pressure, 6 hours after administration of the substance” value ([2]; initial value 229)?
A: Its value is 217.

Q: And the “Heart rate, 6 hours after administration of the substance” value ([2]; initial value 398)?
A: The value was 378.

Q: And the “Risk of provoking conduction disturbances compared with verapamil” value (AV conduction; in vivo)?
A: Its value is “substantially lower in the case of A than for verapamil”.

Q: And the “Therapeutic index compared with verapamil” value (AV conduction; in vivo)?
A: The value was “substantially greater therapeutic index than verapamil”.

Q: And the “Effect on AV conduction” value (AV conduction; in vivo, iv, 0.4 mg/kg)?
A: The value was “no adverse effect at all on the AV conduction”.

Q: What about the “Effect on number of animals surviving hypoxia after 3 minutes” value (“Effect on number” for short) (cerebral hypoxia) of the same compound?
A: The value was “increase the number of experimental animals which survive after 3 minutes”.

Q: What about the ED50 (cerebral hypoxia; Mus musculus, po, 1 h, mouse, 1 hour after oral administration, read-out: ED 50% (dose at which 50% of the animals survived oxygen-deficient ventilation for 3 minutes)) of the same compound?
A: Its ED50 is 88 mg/kg.

Q: What about the “Protective action against cerebral hypoxia compared with verapamil” value (cerebral hypoxia; mouse) of the same compound?
A: Its value is “superior protective action, compared with verapamil”.

Q: What about the “Reduction in the blood pressure” value [3] of the same compound?
A: Its value is “does not result in a reduction in the blood pressure”.

Q: And the Toleration [3]?
A: The Toleration was “particularly well tolerated”.

Q: And the Duration of action [4]?
A: The Duration of action was “long duration of action”.

Q: And the Oral availability ([4]; po)?
A: Its Oral availability is “great oral availability”.

Q: Which results are given for `CC(C)C(C#N)(CCCN(C)CCc1ccccc1)c1ccccc1` (single isomer, unassigned; (+)) [(+) A, (+)-1,7-Diphenyl-3-methylaza-7-cyano-8-methylnonane]?
A: Efficacy relative to the racemate [1, 16]: about one fourth of the efficacy of the racemate; ED 50% (pretreatment dose which increases the ATP level by 50% compared with the hypoxic control group) [1, 16]: 50.3 mg/kg; Relative activity [1, 16]: 0.27; ED 50% (dose at which 50% of the animals survived oxygen-deficient ventilation for 3 minutes) (cerebral hypoxia; [17]): 100 mg/kg

Q: Which “Effective dose compared with that of the antipode” value [1, 16] does the source give for `CC(C)C(C#N)(CCCN(C)CCc1ccccc1)c1ccccc1` (single isomer, unassigned; (-)) [(-) A, (-)-1,7-Diphenyl-3-methylaza-7-cyano-8-methylnonane] here?
A: Its value is “substantially lower than that of the dextrorotatory antipode”.

Q: And the “Efficacy relative to the racemate” value [1, 16]?
A: The value was “about twice as effective as the racemate”.

Q: And the “ED 50% (pretreatment dose which increases the ATP level by 50% compared with the hypoxic control group)” value [1, 16]?
A: The value was 6.6 mg/kg.

Q: And the Relative activity [1, 16]?
A: The Relative activity was 2.06.

Q: And the “Effect on number” value (cerebral hypoxia)?
A: The value was “increase the number of experimental animals which survive after 3 minutes”.

Q: And the “ED 50% (dose at which 50% of the animals survived oxygen-deficient ventilation for 3 minutes)” value (cerebral hypoxia; [17])?
A: The value was 48 mg/kg.

Q: For `COc1ccc(CCN(C)CCCC(C#N)(c2ccc(OC)c(OC)c2)C(C)C)cc1OC` (centres unmarked) [verapamil, reference compound], which “Percentage difference in the amount of ATP” value [1, 11] is on record?
A: Its value is 0%.

Q: And the “Percentage difference in the amount of CP” value [1, 11]?
A: Its value is -9%.

Q: And the “Percentage difference in the amount of Glycogen” value [1, 11]?
A: The value was 9%.

Q: What about the “Percentage difference in the amount of ATP” value [1, 18] of the same compound?
A: Its value is 9%.

Q: What about the “Percentage difference in the amount of CP” value [1, 18] of the same compound?
A: Its value is 9%.

Q: What about the “Percentage difference in the amount of Glycogen” value [1, 18] of the same compound?
A: The value was -5%.

Q: And the “Percentage difference in the amount of ATP” value [1, 19]?
A: The value was 20%.

Q: And the “Percentage difference in the amount of CP” value [1, 19]?
A: The value was 21%.

Q: And the “Percentage difference in the amount of Glycogen” value [1, 19]?
A: Its value is 2%.

Q: And the “Protective action against the hypoxia-induced reduction in myocardial CP, ATP and glycogen” value ([1]; same dose as A or up to 4 times higher, 6 hours after oral administration)?
A: The value was “no significant protective action”.

Q: What about the AV block (AV conduction; 0.4 mg/kg intravenously) of the same compound?
A: The AV block was “causes second degree AV blocks in all experimental animals”.

Q: What about the PQ interval (AV conduction; 0.4 mg/kg intravenously) of the same compound?
A: Its PQ interval is “greatly prolongs the PQ interval”.

Q: And the “Myocardial contractility (maximum systolic rate of increase in pressure in the left ventricle)” value [5]?
A: Its value is “reduction in the myocardial contractility”.

Q: What about the PQ interval [5] of the same compound?
A: Its PQ interval is “pronounced increase in the PQ interval”.

Q: What about the “Effect on number” value (cerebral hypoxia) of the same compound?
A: The value was “ineffective”.

Q: And the “Survival of pretreated animals” value (cerebral hypoxia; after 3 minutes of hypoxia)?
A: Its value is “dead after 3 minutes”.

Q: And the “Known effects on the heart and the circulation” value [6]?
A: Its value is “reduction in blood pressure and inhibition of AV conduction”.
